Test results reported in patent US10493046B2, “5-hydroxytryptamine 1B receptor-stimulating agent for use as a promoter of satellite cells self-renewal and/or differentiation” (INSTITUT PASTEUR, priority 2015, dated 2019).

Experiments:
[1] = system: satellite cells; experiment: Satellite cell (SC) number in tibialis anterior of treated mice (histological count or FACS cytometry); assay type: in vivo, mouse; details: GR127935 in osmotic pump together with vortioxetine I.P 12 days; Tg:Pax7nGFP mice
Procedure: For satellite cell counting, only the tibialis anterior muscle was dissected and digested as described earlier, and the totality of the tube was analysed to assess the number of satellite cells per muscle. FACS analysis was done using a FACSasia (Beckman). All analyses and quantitation were performed using Summit v4.3 software from DakoCytomation and FloJo software. […]
In order to count the number of satellite cells, the tibialis anterior (TA) of Tg:Pax7nGFP mice were digested and analysed by FACS in placebo and vortioxetine (12 days, 20 mg/Kg) treated mice. […] After 3 weeks of vortioxetine treatment, the number of satellite cells was even higher (9351 satellite cells±706, p=0.0079) but no statistically significant differences were found between 12 days and 3 weeks of treatment (p=0.15).

[2] = system: satellite cells; experiment: BrdU cell division of satellite cells during treatment; assay type: in vivo, mouse; details: BrdU during the entire per os treatment
From the text: (a) Schematic representation of fluoxetine delivery and sacrifice time points. (b) Number of satellite cells per mm^2 on section. […] The arrows point to the satellite cells. […] (k-l) Representative image of a vessel (arrows) in the Matrigel plug detected by HE staining in placebo (k) or fluoxetine (l) treated mice. (m) Vessel length 4 days post-plating of Cytodex® beads covered with HUVEC. (n) Representative image of a Cytodex® bead 4 days-post plating in presence of placebo plasma. […] Using immunostainings and FACS cell sorting in Figures (p) to (v): (p) Number of Pax7GFP expressing cells per digested TA (expressed as an absolute number) counted by FACS. (q) Representative FACS profile of digested TA of TgPax7nGFP mouse. […] TA muscle was digested and cells were isolated by FACS, spined on a slide and immuno-stained against BrdU. (s) Percentage of BrdU+ cells in Tg:Pax7nGFP mice (n=3 per time point). […] Data are represented as mean±s.d. *P<0.05; **P<0.01; ***P<0.001. Scale bar represents 100 μm. For Figures (p) to (v): n=7 mice used per condition, except for BrdU experiments n=3 per time point. Data are represented as mean±s.d. **P<0.01. Scale bar represents 100 μm.

[3] = system: serotonin receptors subtypes; experiment: RT-qPCR of serotonin receptor subtypes in FACS-sorted muscle cells after treatment; assay type: in vivo, mouse; details: 6 weeks P.O fluoxetine; FACS-sorted endothelial cells
Procedure: Total RNA was isolated from cells using the RNAeasy Micro kit (Qiagen). The total RNA was reverse-transcribed using Superscript® III Reverse transcriptase (Invitrogen). Real-time quantitative PCR was performed using Power Sybr Green PCR Master Mix (Applied Biosystems) and the rate of dye incorporation was monitored using the StepOne™ Plus RealTime PCR system (Applied Biosystems). At least three biological replicates were used for each condition. Data were analyzed by StepOne Plus RT PCR software v2.1 and Microsoft excel. GAPDH transcript levels were used for normalisation of each target (=ΔCT). Real-time PCR CT values were analyzed using the 2-(ΔΔCt) method to calculate the fold expression (ΔΔCTmethod, Livak et al., 2001).
RT-qPCR was then performed on serotonin receptors subtypes to further characterize by which the endothelial cells could be activated (FIG. 5b). […] The same observation was made in FACS cell-sorted SC from Tg:Pax7nGFP mice (FIG. 5b).

[4] = system: CD31 expressing cells; experiment: Ex vivo Matrigel angiogenesis assay (subcutaneous plugs); assay type: in vivo, mouse; details: C57Bl/6 treated P.O for 6 weeks
From the text: To further confirm the above results, an ex vivo Matrigel angiogenesis assay was used. To do so, a cold Matrigel was introduced subcutaneously, which solidifies and allows the penetration by host cells and the formation of new blood vessels in C57Bl/6 treated P.O for 6 weeks.

[5] = system: primary human myoblasts; experiment: Primary human myoblasts plated in plasma from treated mice; assay type: cell-based; details: plasma from fluoxetine-treated mice
[6] = system: extensor digitorum longus (edl) fibers; experiment: Tension of isolated muscle fibers of mdx mice; assay type: in vivo, mouse; details: fluoxetine treated mdx mice
Procedure: Small bundles of two to five fibers were manually isolated from the muscles as previously described. Chemical skinning was carried out using Triton X-100. Skinned fibers were mounted in the Displacement Measuring System KD 2300 (model 0.5 SU, Kaman Instrumentation, Colorado Springs, Colo., USA). To perform force measurements, skinned fiber preparations were incubated for 1 h in relaxing solution (pCa 9.0, low calcium content) containing 1% Triton X-100 (v/v) to solubilize the sarcolemma and the sarcoplasmic reticulum membranes, and were subsequently washed several times in relaxing solution without detergent. Fibres were adjusted to slack length and then stretched progressively until the tension developed became maximal. Isometric tension was recorded continuously using a chart recorder (model 1200, Linear, Reno, Nev., USA). The tension obtained was normalized to fibre cross-sectional area.
This was confirmed on soleus muscle (data not shown).

Structure (SMILES) | Number of SC [1] [SC per TA] | SC population dividing (BrdU) [2] [%] | Expression of other subtypes (5-HT1 AR, 5-HT1 DR, 5-HT1 FR, 5-HT2 AR, 5-HT2 CR) [3] | Number of CD31 expressing cells in Matrigel plugs [4] [CD31+ cells per mm^2] | Differentiation 4 days post-plating vs placebo plasma [5] | Self-renewal of the cells 14 days post-plating vs placebo plasma [5] | Force increase of isolated single fibers of extensor digitorum longus (edl) [6] [%]
COc1ccc(NC(=O)c2ccc(-c3ccc(-c4noc(C)n4)cc3C)cc2)cc1N1CCN(C)CC1 [GR127935] | 5540±411 | – | – | – | – | – | –
CNCCC(Oc1ccc(C(F)(F)F)cc1)c1ccccc1 (stereo not shown) [fluoxetine] | – | 90 | non-statistically significant increase | 72.9±22.6 | faster differentiation | higher self-renewal | 45
